Experimental data as given in ChEMBL document CHEMBL6182856, “Novel one-/two-photon excited carbazole/quinolinium photosensitizers manifest nanomolar and hypoxia-resistant tumor photodynamic therapy by accelerating apoptosis, ferroptosis, and autophagy” (Eur J Med Chem, 2025).
The source made the active and inactive calls. The rule behind the calls is not given here.

Assays:
A549 [1] = test: Induction of mitochondrial damage in human A549 cells assessed as increase in ratio of green to red fluorescence intensity measured upon light irradiation by JC-1 staining based fluorescence analysis relative to control; type: functional
[2] = Photosensitizing ability of the compound in methanol assessed as time duration of singlet oxygen production measured upon irradiation by DPBF based assay; type: functional
[3] = Photosensitizing ability of the compound assessed as superoxide radical production measured upon irradiation by DHE probe based assay; type: functional
[4] = Photosensitizing ability of the compound assessed as hydroxyl radical production measured upon irradiation by HPF probe based assay; type: functional
[5] = Photosensitizing ability of the compound assessed as superoxide radical production measured upon irradiation by electron spin resonance analysis; type: functional
[6] = Phototoxicity against human A549 cells assessed as inhibition of cell growth at 1.56 to 400 nM incubated for 24 hrs measured under normoxia conditions and after one-photon excitation upon irradiation with light at 520 nm, 200 mW/cm2 for 10 mins by MTT assay relative to control; type: functional; details: dose 1.56-400 nM
HT-29 = test: Cytotoxicity against human HT-29 cells assessed as inhibition of cell growth incubated for 24 hrs measured under normoxia conditions by MTT assay; type: functional, cell-based; details: HT-29, 24 h
4T1 = test: Cytotoxicity against mouse 4T1 cells assessed as inhibition of cell growth incubated for 24 hrs measured under normoxia conditions by MTT assay; type: functional, cell-based; details: 4T1, 24 h
[7] = Phototoxicity against human HT-29 cells assessed as inhibition of cell growth incubated for 24 hrs measured under normoxia conditions and after one-photon excitation upon irradiation with light at 520 nm, 200 mW/cm2 for 10 mins by MTT assay; type: functional, cell-based; details: HT-29, light or radiation study
[8] = Phototoxicity against mouse 4T1 cells assessed as inhibition of cell growth incubated for 24 hrs measured under normoxia conditions and after one-photon excitation upon irradiation with light at 520 nm, 200 mW/cm2 for 10 mins by MTT assay; type: functional, cell-based; details: 4T1, light or radiation study
[9] = Phototherapeutic index, ratio of IC50 for cytotoxicity against human HT-29 cells measured under normoxia conditions to IC50 for phototoxicity against human HT-29 cells measured under normoxia conditions and after one-photon excitation upon irradiation with light at 520 nm, 200 mW/cm2 for 10 mins; type: functional
[10] = Phototherapeutic index, ratio of IC50 for cytotoxicity against human A549 cells measured under hypoxia conditions to IC50 for phototoxicity against human A549 cells measured under hypoxia conditions and after two-photon excitation upon irradiation with light at 808 nm, 200 mW/cm2 for 10 mins; type: functional
[11] = Selectivity index, ratio of IC50 for cytotoxicity against human HFL1 cells measured under normoxia conditions to IC50 for cytotoxicity against human A549 cells measured under normoxia conditions; type: toxicity, cell-based; details: HFL1 cells versus A549 cells, read-out: Ratio IC50
[12] = Drug uptake in human A549 cells assessed as localization in mitochondria by measuring appearance of yellow fluorescence by Hoechst33342/MitoTracker dye based confocal laser scanning microscopic analysis; type: ADME
A549 [13] = test: Induction of ROS generation in human A549 cells assessed as intracellular ROS level measured under normoxia conditions by DCFH-DA staining based fluorescence analysis; type: functional, cell-based
A549 [14] = test: Induction of ROS generation in human A549 cells assessed as intracellular superoxide level measured under normoxia conditions by DHE probe based fluorescence analysis; type: functional, cell-based
A549 [15] = test: Induction of ROS generation in human A549 cells assessed as intracellular singlet oxygen level measured under normoxia conditions by SOSG probe based fluorescence analysis; type: functional, cell-based
A549 [16] = test: Photosensitizing ability of the compound in human A549 cells assessed as increase in intracellular superoxide generation by measuring increase in fluorescence intensity measured upon light irradiation under hypoxia conditions by DHE probe based fluorescence analysis; type: functional, cell-based
A549 [17] = test: Induction of mitochondrial damage in human A549 cells assessed as decrease in red fluorescence intensity measured upon light irradiation by JC-1 staining based fluorescence analysis; type: functional, cell-based
A549 [18] = test: Induction of mitochondrial damage in human A549 cells assessed as increase in green fluorescence intensity measured upon light irradiation by JC-1 staining based fluorescence analysis; type: functional, cell-based
A549 [19] = test: Induction of apoptosis in human A549 cells assessed as viable cells measured under dark conditions by AnnexinV-FITC/PI staining based flow cytometric analysis (reference value: 99.7%); type: functional
A549 [20] = test: Induction of apoptosis in human A549 cells assessed as late apoptotic cells measured upon light irradiation by AnnexinV-FITC/PI staining based flow cytometric analysis (reference value: 0.15%); type: functional
A549 [21] = test: Induction of apoptosis in human A549 cells assessed as reduction in Bcl-2 expression measured upon light irradiation by western blot analysis relative to control; type: functional
A549 [22] = test: Induction of ferroptosis in human A549 cells assessed as increase in lipid peroxidation by measuring decrease in GSH level measured upon irradiation relative to control; type: functional
A549 [23] = test: Induction of ferroptosis in human A549 cells assessed as increase in lipid peroxidation by measuring decrease in GPX4 protein expression measured upon irradiation by western blot analysis relative to control; type: functional
A549 [24] = test: Induction of ferroptosis in human A549 cells assessed as increase in lipid peroxidation by measuring reduction in red fluorescence of the reduced state measured upon irradiation by BODIPY 581/591C11 probe based confocal imaging analysis; type: functional, cell-based
A549 [25] = test: Induction of ferroptosis in human A549 cells assessed as increase in lipid peroxidation by measuring increase in green fluorescence of the oxidized state measured upon irradiation by BODIPY 581/591C11 probe based confocal imaging analysis; type: functional, cell-based
A549 [26] = test: Induction of ferroptosis in human A549 cells assessed as increase in lipid peroxidation by measuring increase in green-to-red fluorescence ratio measured upon irradiation by BODIPY 581/591C11 probe based confocal imaging analysis relative to control; type: functional
A549 [27] = test: Induction of autophagy in human A549 cells assessed as large circular vesicles engulfing small particles measured upon light irradiation by transmission electron microscopy; type: functional, cell-based
[28] = Toxicity against mouse xenografted with human A549 cells assessed as changes in body weight administered intratumorally on day 0 and 7 and measured for 15 days; details: in vivo, other, 360 h, route it(Intratumoral), time 15 day
[29] = Toxicity against mouse xenografted with human A549 cells assessed as changes in hematological indicators administered intratumorally on day 0 and 7 and measured on day 15; details: in vivo, other, 360 h, route it(Intratumoral), time 15 day
[30] = Photosensitizing ability of the compound in methanol assessed as singlet oxygen production by measuring quantum yield upon irradiation by DPBF based assay relative to KAKQ; type: functional
[31] = Photosensitizing ability of the compound assessed as superoxide radical production upon irradiation by DHE probe based assay relative to KAKQ; type: functional
[32] = Photosensitizing ability of the compound assessed as hydroxyl radical production upon irradiation by HPF probe based assay relative to KAKQ; type: functional
[33] = Photosensitizing ability of the compound assessed as hydroxyl radical production upon irradiation by HPF probe based assay relative to KNKQ; type: functional
[34] = Photosensitizing ability of the compound assessed as hydroxyl radical production upon irradiation by HPF probe based assay relative to RuB; type: functional
A549 [35] = test: Induction of apoptosis in human A549 cells measured upon light irradiation by AnnexinV-FITC/PI staining based flow cytometric analysis relative to RuB; type: functional

Which “fold change (FC)” value (A549 [1]) does the source give for CCn1c2ccc(/C=C/c3cc[n+](C)c4ccccc34)cc2c2cc(N(c3ccccc3)c3ccccc3)ccc21.[I-] here?
The value was about 100.

What about the TIME [2] of the same compound?
The TIME was under 0.133 h.

What about the Activity [3] of the same compound?
Its Activity is “Active”.

And the Activity [4]?
Its Activity is “Active”.

What about the Activity [5] of the same compound?
Its Activity is “Active”.

What about the “inhibition (INH)” value [6] of the same compound?
The value was 24.4%.

And the IC50 (HT-29)?
The IC50 was 1480 nM.

And the IC50 (4T1)?
The IC50 was 1080 nM.

What about the IC50 [7] of the same compound?
The IC50 was 29 nM.

What about the IC50 [8] of the same compound?
Its IC50 is 51 nM.

What about the “Ratio IC50” value [9] of the same compound?
Its value is 51.

And the “Ratio IC50” value [10]?
The value was 10.

What about the selectivity ratio [11] of the same compound?
Its selectivity ratio is 6.

What about the Drug uptake [12] of the same compound?
Its Drug uptake is “Active”.

What about the Activity (A549 [13]) of the same compound?
Its Activity is “inactive”.

What about the Activity (A549 [14]) of the same compound?
Its Activity is “inactive”.

What about the Activity (A549 [15]) of the same compound?
Its Activity is “inactive”.

What about the Activity (A549 [16]) of the same compound?
Its Activity is “Active”.

And the Activity (A549 [17])?
The Activity was “Active”.

And the Activity (A549 [18])?
The Activity was “Active”.

What about the Activity (A549 [19]) of the same compound?
Its Activity is 50.4%.

And the Activity (A549 [20])?
Its Activity is 87.8%.

And the “fold change (FC)” value (A549 [21])?
Its value is about 3.

What about the “fold change (FC)” value (A549 [22]) of the same compound?
Its value is 100.

What about the “fold change (FC)” value (A549 [23]) of the same compound?
Its value is 3.3.

What about the Activity (A549 [24]) of the same compound?
Its Activity is “Active”.

What about the Activity (A549 [25]) of the same compound?
The Activity was “Active”.

And the “fold change (FC)” value (A549 [26])?
The value was 24.

And the Activity (A549 [27])?
The Activity was “Active”.

And the Activity [28]?
Its Activity is “Non-toxic”.

What about the Activity [29] of the same compound?
Its Activity is “Non-toxic”.

What about the fold change (FC) [30] of the same compound?
The fold change (FC) was 3.

What about the fold change (FC) [31] of the same compound?
Its fold change (FC) is 8.

And the fold change (FC) [32]?
Its fold change (FC) is 3.

What about the fold change (FC) [33] of the same compound?
The fold change (FC) was 3.

And the fold change (FC) [34]?
Its fold change (FC) is 3.

And the “fold change (FC)” value (A549 [35])?
Its value is 14.
